Tested on: pentylenetetrazol (PTZ)-induced ictal brain activity
Test: Modulation of pentylenetetrazol (PTZ)-induced seizures, BOLD fMRI in rats
Type: in vivo, male Wistar rats
Details: for PTZ-induced brain activity, positive control compounds: Alprazolam 3 mg/kg i.p., 1 dose, no dose printed for Diazepam
Method: Functional MRI (fMRI) was performed using a high-field preclinical MRI system in anesthetized male Wistar rats in order to determine the modulation of pentylenetetrazol (PTZ)-induced ictal brain activity by chronic treatment with test compound (TC). […] Vehicle and 3 mg/kg Alprazolam served as controls (see, Table 11) Seizures were induced with PTZ in each experimental group. A schematic of the study design can be seen in FIG. 6. Various physiological parameters were also measured throughout the experiment including body weight, CO2 levels, blood pH, and heart rate. […] Vehicle and 3 mg/kg Alprazolam served as controls (see, Table 12).

Structure (SMILES)	PTZ-induced brain activity, positive control compounds	brain regions with statistical significance of BOLD fMRI AUC, Vehicle vs. Alprazolam (FIG. 7A, Alprazolam 3 mg/kg+PTZ, two-way ANOVA)
Cc1nnc2n1-c1ccc(Cl)cc1C(c1ccccc1)=NC2 [Alprazolam]	effectively cancelled PTZ-induced brain activity with high statistical significance in all tested brain regions	in all
CN1C(=O)CN=C(c2ccccc2)c2cc(Cl)ccc21 [Diazepam]	effectively cancelled PTZ-induced brain activity with high statistical significance in all tested brain regions	

Source: patent US20250222018A1, “METHODS OF USING AVERMECTIN COMPOSITIONS FOR THE TREATMENT OF PAIN AND DOSING REGIMENS” (L4 BIO LLC, priority 2022, published 2025)
